We go through 28 compounds from US8741934B2, “Inhibitors of ion channels” (Pfizer Limited, priority 2007, dated 2014).

The target of the assay is T1, hSCN3A sodium channels (Homo sapiens, UniProt Q9NY46).
T1 construct: expressed in transfected cells
Kind of assay: hSCN3A electrophysiology, Ionworks Quattro automated platform (Table C). It counts as cell-based. Conditions: for inhibition at 3 µM: read-out: SCN3A % INHIB HTS IWQ 3 μM; for inhibition at 10 µM: read-out: SCN3A % INHIB HTS IWQ 10 μM; for SCN3A INHIB INACT DRC EP IWQ EMAX: Emax of dose-response curve, inactivated state. As to the method:
Human Embryonic Kidney (HEK) cells were transfected with an hSCN3A construct using lipofectamine reagent (Invitrogen), using standard techniques. […] Clones were screened for expression using the whole-cell voltage-clamp technique.
HEK cells stably transfected with hSCN3A were maintained in DMEM medium supplemented with 10% heat-inactivated fetal bovine serum and 400 μg/ml G418 sulfate in an incubator at 37° C. with a humidified atmosphere of 10% CO2. […] For electrophysiological studies, cells were removed from the culture flask by brief trypsinization and replated at low density onto glass cover slips. Cells were typically used for electrophysiological experiments within 24 to 72 h after plating.
Electrophysiological assays were also conducted using the Ionworks Quattro automated electrophysiological platform (Molecular Devices Corp) (Table C). Intracellular and extracellular solutions were as described above with the following changes, 100 μg/ml amphotericin was added to the intracellular solution to perforate the membrane and allow electrical access to the cells. hSCN3A cells were grown and harvested as for PatchXpress and cells were resuspended in extracellular solution at a concentration of 3-4×10^6 cells/ml. The onboard liquid handling facility of the Ionworks Quattro was used for dispensing cells and application of test compounds. A voltage protocol was then applied that comprised of a voltage step to fully inactivate the sodium channels, followed by a brief hyperpolarized recovery period to allow partial recovery from inactivation for unblocked sodium channels, followed by a test depolarized voltage step to assess magnitude of inhibition by test compound. Compound effect was determined based on current amplitude difference between the pre-compound addition and post-compound addition scans.
A general note: Patch clamp records ionic current or voltage across a cell membrane.

T1 sequence (Q9NY46 whole entry): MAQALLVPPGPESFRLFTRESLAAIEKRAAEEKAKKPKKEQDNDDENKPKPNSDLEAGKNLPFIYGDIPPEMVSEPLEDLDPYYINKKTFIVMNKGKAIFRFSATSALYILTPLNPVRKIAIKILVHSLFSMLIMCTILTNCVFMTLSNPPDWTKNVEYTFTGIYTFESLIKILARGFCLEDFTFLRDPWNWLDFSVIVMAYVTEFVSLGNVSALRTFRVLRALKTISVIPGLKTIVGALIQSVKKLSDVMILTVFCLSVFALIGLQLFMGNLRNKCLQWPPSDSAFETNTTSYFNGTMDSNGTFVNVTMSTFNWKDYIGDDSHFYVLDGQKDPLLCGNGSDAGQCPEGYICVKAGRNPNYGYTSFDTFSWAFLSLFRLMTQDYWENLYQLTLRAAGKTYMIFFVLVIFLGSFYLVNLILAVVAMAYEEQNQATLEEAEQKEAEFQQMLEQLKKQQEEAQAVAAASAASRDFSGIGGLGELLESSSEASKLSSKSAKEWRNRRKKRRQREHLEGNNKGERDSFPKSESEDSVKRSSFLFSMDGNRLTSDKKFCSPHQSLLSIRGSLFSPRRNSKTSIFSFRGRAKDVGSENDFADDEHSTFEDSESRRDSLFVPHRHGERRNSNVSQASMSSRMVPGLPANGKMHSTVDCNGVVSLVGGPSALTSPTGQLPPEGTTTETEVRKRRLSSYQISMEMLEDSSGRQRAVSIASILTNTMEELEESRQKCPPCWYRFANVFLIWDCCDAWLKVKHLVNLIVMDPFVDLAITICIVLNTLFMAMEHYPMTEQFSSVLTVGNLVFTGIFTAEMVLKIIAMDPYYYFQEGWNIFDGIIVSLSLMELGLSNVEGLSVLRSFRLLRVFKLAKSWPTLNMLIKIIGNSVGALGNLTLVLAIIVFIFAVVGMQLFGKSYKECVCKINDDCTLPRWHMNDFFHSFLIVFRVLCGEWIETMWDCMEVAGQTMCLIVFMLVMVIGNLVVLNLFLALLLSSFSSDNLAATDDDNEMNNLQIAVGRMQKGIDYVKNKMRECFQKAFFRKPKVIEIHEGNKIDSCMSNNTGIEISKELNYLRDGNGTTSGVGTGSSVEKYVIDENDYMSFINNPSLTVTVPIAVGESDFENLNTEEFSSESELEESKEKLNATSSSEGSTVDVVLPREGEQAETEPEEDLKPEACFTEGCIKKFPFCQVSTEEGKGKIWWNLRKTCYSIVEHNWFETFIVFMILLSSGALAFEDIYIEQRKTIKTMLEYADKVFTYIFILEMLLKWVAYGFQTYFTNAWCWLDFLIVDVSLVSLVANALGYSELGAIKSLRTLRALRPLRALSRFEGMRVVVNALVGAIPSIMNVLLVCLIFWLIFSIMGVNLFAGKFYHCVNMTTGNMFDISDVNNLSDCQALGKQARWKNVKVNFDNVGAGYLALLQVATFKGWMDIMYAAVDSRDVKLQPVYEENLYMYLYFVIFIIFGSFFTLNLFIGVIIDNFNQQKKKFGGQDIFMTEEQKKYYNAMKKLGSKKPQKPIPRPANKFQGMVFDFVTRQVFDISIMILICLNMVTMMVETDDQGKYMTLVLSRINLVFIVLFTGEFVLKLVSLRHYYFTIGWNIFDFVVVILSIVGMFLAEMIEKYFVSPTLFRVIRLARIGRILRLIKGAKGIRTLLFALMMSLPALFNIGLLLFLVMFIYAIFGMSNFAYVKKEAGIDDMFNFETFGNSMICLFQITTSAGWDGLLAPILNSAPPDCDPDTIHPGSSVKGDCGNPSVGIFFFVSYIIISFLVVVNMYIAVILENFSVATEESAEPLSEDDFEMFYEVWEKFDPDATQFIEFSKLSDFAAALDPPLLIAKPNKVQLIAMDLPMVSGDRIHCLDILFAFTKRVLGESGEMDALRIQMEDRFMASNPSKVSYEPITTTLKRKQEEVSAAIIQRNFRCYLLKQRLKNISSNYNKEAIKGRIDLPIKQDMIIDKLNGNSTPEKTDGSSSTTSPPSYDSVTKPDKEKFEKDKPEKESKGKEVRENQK

Regarding `O=C(c1ccc(S(=O)(=O)Nc2nccs2)cc1)N1CCCCCC1c1ccccc1` (centres unmarked) [Example 268, 4-[(2-Phenylazepan-1-yl)carbonyl]-N-1,3-thiazol-2-yl-benzenesulfonamide], the inhibition at 3 µM (3 μM compound) stood at 11%. The inhibition at 10 µM (10 μM compound) is 10.6%.
As for `COCCCOC1CCCN(C(=O)c2ccc(S(=O)(=O)Nc3nccs3)cc2)C1` (centres unmarked) [Example 260, 4-{[3-(3-Methoxypropoxy)piperidin-1-yl]carbonyl}-N-1,3-thiazol-2-yl-benzenesulfonamide], the inhibition at 3 µM (3 μM compound) is -3.05%. The inhibition at 10 µM (10 μM compound) was 10.5%.
Take `COc1cccc(CC2CCCN2C(=O)c2ccc(S(=O)(=O)Nc3nccs3)cc2)c1` (centres unmarked) [Example 240, 4-{[2-(3-Methoxybenzyl)pyrrolidin-1-yl]carbonyl}-N-1,3-thiazol-2-yl-benzenesulfonamide]: the inhibition at 3 µM (3 μM compound) came to 14.4%. In addition, the inhibition at 10 µM (10 μM compound) came to 20.2%.
`O=C(NCc1cc(F)ccc1F)c1ccc(S(=O)(=O)Nc2nccs2)cc1` [Example 87, N-(2,5-difluorobenzyl)-4-[(1,3-thiazol-2-ylamino)sulfonyl]benzamide]: the inhibition at 3 µM (3 μM compound) came out at 36.9%. For the same compound, the inhibition at 10 µM (10 μM compound) worked out at 46.2%.
For the compound `CC(CNC(=O)c1ccc(S(=O)(=O)Nc2nccs2)cc1)c1ccccc1` (centres unmarked) [Example 155, N-(2-phenylpropyl)-4-[(1,3-thiazol-2-ylamino)sulfonyl]benzamide], the inhibition at 3 µM (3 μM compound) worked out at 30.1%. Further, the inhibition at 10 µM (10 μM compound) came out at 40.8%.
For the compound `O=C(c1ccc(S(=O)(=O)Nc2nccs2)cc1)N1CCCO[C@H]1Cc1ccccc1` [Example 214, 4-{[(2S)-2-benzyl-1,3-oxazinan-3-yl]carbonyl}-N-1,3-thiazol-2-yl-benzenesulfonamide], the inhibition at 3 µM (3 μM compound) came to 9.25%. The inhibition at 10 µM (10 μM compound) came to 4.51%.
Take `CC[C@H](NC(=O)c1ccc(S(=O)(=O)Nc2nccs2)cc1)c1ccccc1` [Example 145, N-[(1S)-1-phenylpropyl]-4-[(1,3-thiazol-2-ylamino)sulfonyl]benzamide]: the inhibition at 3 µM (3 μM compound) amounted to 2.05%. The inhibition at 10 µM (10 μM compound) was found to be 19.4%.
For `O=C(c1ccc(S(=O)(=O)Nc2nccs2)cc1)N1CCOC(CN2Cc3ccccc3C2=O)C1` (centres unmarked) [Example 210, 4-({2-[(1-Oxo-1,3-dihydro-2H-isoindol-2-yl)methyl]morpholin-4-yl}carbonyl)-N-1,3-thiazol-2-ylbenzenesulfonamide] the same measures were 4.03% and 11.9%.
For the compound `O=C(NCC1(c2ccccc2)CC1)c1ccc(S(=O)(=O)Nc2nccs2)cc1` [Example 153, N-[(1-phenylcyclopropyl)methyl]-4-[(1,3-thiazol-2-ylamino)sulfonyl]benzamide], where the note is “3 μM compound”, the inhibition at 3 µM came to 15.9%. Further, under “10 μM compound”, the inhibition at 10 µM came to 32.9%.
In the case of `O=C(c1ccc(S(=O)(=O)Nc2nccs2)cc1)N1CCCCC1CCn1cccn1` (centres unmarked) [Example 190, 4-({2-[2-(1H-pyrazol-1-yl)ethyl]piperidin-1-yl}carbonyl)-N-1,3-thiazol-2-yl-benzenesulfonamide], the inhibition at 3 µM (3 μM compound) stood at 2.77%. Moreover, the inhibition at 10 µM (10 μM compound) is -8.21%.
Taken in the same sequence, the figures for `Cc1ccc(OCCNC(=O)c2ccc(S(=O)(=O)Nc3nccs3)cc2)cc1` [Example 154, N-[2-(4-methylphenoxy)ethyl]-4-[(1,3-thiazol-2-ylamino)sulfonyl]benzamide] were 28% and 30.8%.
As for `Cc1ccnc(CC2CCCN2C(=O)c2ccc(S(=O)(=O)Nc3nccs3)cc2)c1` (centres unmarked) [Example 248, 4-({2-[(4-Methylpyridin-2-yl)methyl]pyrrolidin-1-yl}carbonyl)-N-1,3-thiazol-2-yl-benzenesulfonamide], the inhibition at 3 µM (3 μM compound) worked out at 20.1%. In addition, the inhibition at 10 µM (10 μM compound) amounted to 14.7%.
Taken in the same sequence, the figures for `O=C(NC(CO)c1ccccc1Cl)c1ccc(S(=O)(=O)Nc2nccs2)cc1` (centres unmarked) [Example 56, N-[1-(2-chlorophenyl)-2-hydroxyethyl]-4-[(1,3-thiazol-2-ylamino)sulfonyl]benzamide] were 3.23% and 2.53%.
Regarding `Cc1cccc(CN2CCN(C(=O)c3ccc(S(=O)(=O)Nc4nccs4)cc3)CC2=O)c1` [Example 276, 4-{[4-(3-Methylbenzyl)-3-oxopiperazin-1-yl]carbonyl}-N-1,3-thiazol-2-yl-benzenesulfonamide], the inhibition at 3 µM (3 μM compound) turned out to be 18.1%. For the same compound, the inhibition at 10 µM (10 μM compound) amounted to 20.6%.
Consider `O=C(c1ccc(S(=O)(=O)Nc2nccs2)cc1)N1CCCCC1c1cccc(F)c1` (centres unmarked) [Example 221, 4-{[2-(3-Fluorophenyl)piperidin-1-yl]carbonyl}-N-1,3-thiazol-2-yl-benzenesulfonamide], for which, where the note is “3 μM compound”, the inhibition at 3 µM amounted to 19.9%. Besides, the inhibition at 10 µM (10 μM compound) stood at 21.8%.
Turning to `O=C(c1ccc(S(=O)(=O)Nc2nccs2)cc1)N1CCC(CCc2ccccc2)C1` (centres unmarked) [Example 227, 4-{[3-(2-Phenylethyl)pyrrolidin-1-yl]carbonyl}-N-1,3-thiazol-2-yl-benzenesulfonamide], the “SCN3A INHIB INACT DRC EP IWQ EMAX” value turned out to be 53. Moreover, under “3 μM compound”, the inhibition at 3 µM worked out at 29.3%. Further, the inhibition at 10 µM (10 μM compound) was 45.8%. Also, for the setting “read-out: SCN3A IWQ IC-50”, the IC50 was determined as 20.3 µM.
On to `COc1ccc(OC2CCCN(C(=O)c3ccc(S(=O)(=O)Nc4nccs4)cc3)C2)cc1` (centres unmarked) [Example 203, 4-{[3-(4-Methoxyphenoxy)piperidin-1-yl]carbonyl}-N-1,3-thiazol-2-yl-benzenesulfonamide], for which the inhibition at 3 µM (3 μM compound) came to 13.1%. Further, the inhibition at 10 µM (10 μM compound) was found to be 17.7%.
For `O=C(NC1(c2cccc(Cl)c2)CC1)c1ccc(S(=O)(=O)Nc2nccs2)cc1` [Example 135, N-[1-(3-chlorophenyl)cyclopropyl]-4-[(1,3-thiazol-2-ylamino)sulfonyl]benzamide], the inhibition at 3 µM (3 μM compound) came out at 27.4%. Further, under “10 μM compound”, the inhibition at 10 µM worked out at 30.1%.
As for `O=C(c1ccc(S(=O)(=O)Nc2nccs2)cc1)N1CCCC[C@@H]1c1ccccn1` [Example 261, 4-{[(2R)-2-pyridin-2-yl-piperidin-1-yl]carbonyl}-N-1,3-thiazol-2-yl-benzenesulfonamide], for the setting “3 μM compound”, the inhibition at 3 µM was 6.02%. Also, the inhibition at 10 µM (10 μM compound) stood at 10.4%.
For `O=C(NCc1ccccc1OC(F)F)c1ccc(S(=O)(=O)Nc2nccs2)cc1` [Example 66, N-[2-(difluoromethoxy)benzyl]-4-[(1,3-thiazol-2-ylamino)sulfonyl]benzamide] the same measures were 16.4% and 34.4%.
Consider “N-[1-(3-methylbenzyl)cyclopropyl] 4-[(1,3-thiazol-2-ylamino)sulfonyl]benzamide [Example 159]”, for which, under “3 μM compound”, the “SCN3A % INHIB HTS IWQ 3 μM” value is given as 28.7%. The “SCN3A % INHIB HTS IWQ 10 μM” value (10 μM compound) turned out to be 35.85%.
As to `O=C(c1ccc(S(=O)(=O)Nc2nccs2)cc1)N1CCCC1Cc1ccccc1F` (centres unmarked) [Example 233, 4-{[2-(2-Fluorobenzyl)pyrrolidin-1-yl]carbonyl}-N-1,3-thiazol-2-yl-benzenesulfonamide], the inhibition at 3 µM (3 μM compound) was found to be 18.5%. In addition, the inhibition at 10 µM (10 μM compound) worked out at 15.9%.
In the case of `Cc1noc(C(NC(=O)c2ccc(S(=O)(=O)Nc3nccs3)cc2)c2ccccc2)n1` (centres unmarked) [Example 183, N-[(3-methyl-1,2,4-oxadiazol-5-yl)(phenyl)methyl]-4-[(1,3-thiazol-2-ylamino)sulfonyl]benzamide], for the setting “3 μM compound”, the inhibition at 3 µM is 8.9%. Also, the inhibition at 10 µM (10 μM compound) came to 1.34%.
In the case of `O=C(c1ccc(S(=O)(=O)Nc2nccs2)cc1)N1CCCC(Cc2ncccn2)C1` (centres unmarked) [Example 237, 4-{[3-(Pyrimidin-2-ylmethyl)piperidin-1-yl]carbonyl}-N-1,3-thiazol-2-yl-benzenesulfonamide], the inhibition at 3 µM (3 μM compound) turned out to be 24.7%. The inhibition at 10 µM (10 μM compound) stood at 17.6%.
In the case of `O=C(NC1(Cc2ccccc2Cl)CC1)c1ccc(S(=O)(=O)Nc2nccs2)cc1` [Example 129, N-[1-(2-chlorobenzyl)cyclopropyl]-4-[(1,3-thiazol-2-ylamino)sulfonyl]benzamide], where the note is “3 μM compound”, the inhibition at 3 µM was found to be 13.6%. Where the note is “10 μM compound”, the inhibition at 10 µM was found to be 24.2%.
As for `CC(CNC(=O)c1ccc(S(=O)(=O)Nc2nccs2)cc1)Oc1ccccc1` (centres unmarked) [Example 161, N-(2-phenoxypropyl)-4-[(1,3-thiazol-2-ylamino)sulfonyl]benzamide], the inhibition at 3 µM (3 μM compound) is 30.3%. Moreover, the inhibition at 10 µM (10 μM compound) amounted to 32.4%.
Consider `O=C(c1ccc(S(=O)(=O)Nc2nccs2)cc1)N1CCOC(COc2cccc(Cl)c2)C1` (centres unmarked) [Example 234, 4-({2-[(3-Chlorophenoxy)methyl]morpholin-4-yl}carbonyl)-N-1,3-thiazol-2-yl-benzenesulfonamide], for which the “SCN3A INHIB INACT DRC EP IWQ EMAX” value amounted to 43.1. For the same compound, the inhibition at 3 µM (3 μM compound) was determined as 32%. Moreover, where the note is “10 μM compound”, the inhibition at 10 µM was determined as 45.9%.
With `CC(C)(NC(=O)c1ccc(S(=O)(=O)Nc2nccs2)cc1)c1cc(F)cc(F)c1` [Example 141, N-[1-(3,5-difluorophenyl)-1-methylethyl]-4-[(1,3-thiazol-2-ylamino)sulfonyl]benzamide], the inhibition at 3 µM (3 μM compound) stood at 6.82%. The inhibition at 10 µM (10 μM compound) amounted to 25%.
